# Data as given in patent publication US20110318768A1, “METHOD FOR DETERMINING SENSITIVITY OF TUMOR CELLS TO TYROSINE KINASE INHIBITOR AND COMPUTER PROGRAM PRODUCT” (SYSMEX CORPORATION, priority 2010, published 2011).
# Tested on: tyrosine kinase in cell membrane fraction of ZR-75-1
# Assay: Tyrosine kinase activity inhibition rate in cell membrane fraction (Poly-Glu4-Tyr substrate)
# Type: biochemical
# Details: 25 μM kinase inhibitor, 25 μM ATP
# Method: (§1) Breast cancer cell lines shown in Table 3 were cultured in a 150 mm dish so as to be about 80% confluent, the cells were recovered using PBS and a scraper, and a cell pellet was obtained by centrifugal operation (900×g, for 5 minutes, at 4° C.). The pellet was frozen with liquid nitrogen and stored at −80° C. until preparation of the measurement sample.
# (§2) 500 μl of NP40 (−) solubilized buffer (20 mM HEPES (pH 7.4)), (w/v) % glycerol, 0.2% protease inhibitor cocktail (#P8340: Sigma-Aldrich (product composition: 104 mM AEBSF, 80 μM aprotinin, 4 mM bestatin, 1.4 mM E-64, 2 mM leupeptin, 1.5 mM Pepstatin A), 50 mM NaF and 200 μM Na3VO4) was added to the cell pellet, followed by stirring for 2 seconds three times using a vortex mixer. After being allowed to stand for 10 minutes, the soluble fraction was removed by centrifugal operation (at 20000×g, for 30 minutes, at 4° C.). The obtained pellet was resuspended in 500 μl of NP40 (−) solubilized buffer, the soluble fraction was again removed by centrifugal operation (at 20000×g, for 20 minutes, at 4° C.), and the pellet was washed. The pellet was resuspended by adding 500 μl of NP40 (+) solubilized buffer (a buffer prepared by adding NP-40 to the NP40 (−) solubilized buffer at a final concentration of 1%) to the pellet, pipetting fifty times, and vortexing for 2 seconds three times. After being allowed to stand for 10 minutes, a cell membrane fraction containing a membrane protein was obtained by centrifugal operation (at 20000×g, for 40 minutes, at 4° C.). The protein concentration of the fraction was measured by DC protein assay (#500-0116 JA: Bio-Rad) and the fraction was used as a sample for kinase activity measurement. The sample was frozen with liquid nitrogen and stored at −80° C. until used for the following kinase activity measurement.
# (§3) NeutrAvidin Coated Plates (HBC) (96 white plate; #15509: Pierce) were washed three times with 300 μl of TBS-T (20 mM Tris-HCl (pH 7.4)), 150 mM NaCl, 0.1% Tween), and then 100 μl of Poly-Glu4-Tyr biotin conjugate (#12440: Upstate) which had been diluted to 1 μg/ml with TBS (20 mM Tris-HCl (pH 7.4), 150 mM NaCl) was added to the wells. After shaking at 37° C. and 400 rpm for 90 minutes, the wells were washed with 300 μl of TBS-T three times and a measuring plate was obtained.
# (§4) The measurement sample was diluted with a kinase buffer (20 mM HEPES (pH 7.4), 25 mM MgCl2, 1.25 mM MnCl2, 250 μM Na3VO4, 12.5 (w/v) % glycerol) so as to adjust the protein concentration to 6.25 μg/ml. The diluted measurement sample was transferred to wells of a 96 well V bottom plate. A DMSO solution (inhibitor concentration: 5 mM) containing one type of tyrosine kinase inhibitors (Inhibitors 1 to 10 shown in Table 6) was added to the wells at a ratio of 1:160 based on the diluted measurement sample solution, followed by mixing thereof. As the control, DMSO was added to the diluted measurement sample at the same ratio as the solution of the inhibitor. The used tyrosine kinase inhibitors are represented as Inhibitors 1 to 10 in Table 6.
# (§5) After addition of the inhibitors, a mixed solution of the measurement sample and the inhibitor was allowed to stand at room temperature for 10 minutes. 40 μl of the mixed solution was transferred to wells of the measuring plate and 10 μl of an ATP solution (20 mM HEPES (pH 7.4), […]) as the phosphate group donor was added to the wells.
# (§6) The composition of the solution in the wells is as follows: protein concentration: 5 μg/ml, 20 mM HEPES (pH 7.4), 20 mM MgCl2, 1 mM MnCl2, 200 μM Na3VO4, 10 (w/v) % glycerol, 25 μM ATP, 25 μM kinase inhibitor.
# (§7) After shaking the measuring plate at 37° C. and 400 rpm for 60 minutes, the solution was removed from the measuring plate, and the wells were washed with 300 μl of TBS-T three times. 100 μl of Starting Block T20 (TBS) (#37543: Pierce) as a blocking solution was added to the wells, followed by blocking at 37° C. and 400 rpm for 10 minutes. The blocking solution was removed from the measuring plate. […]
row,SMILES,Inhibition rate [%]
1,Cc1[nH]c(/C=C2\C(=O)Nc3ccc(S(=O)(=O)N(C)c4cccc(Cl)c4)cc32)c(C)c1C(=O)N1CCN(C)CC1 [Inhibitor 9],53.9

# Tested on: tyrosine kinase in cell membrane fraction of HS578T
# Assay: as above
# Type: biochemical
# Details: 25 μM kinase inhibitor, 25 μM ATP
# Method: as §1, §2, §3, §4, §5, §6, §7
row,SMILES,Inhibition rate [%]
1,Cc1[nH]c(/C=C2\C(=O)Nc3ccc(S(=O)(=O)N(C)c4cccc(Cl)c4)cc32)c(C)c1C(=O)N1CCN(C)CC1 [Inhibitor 9],70.6

# Tested on: tyrosine kinase in cell membrane fraction of HCC1419
# Assay: as above
# Type: biochemical
# Details: 25 μM kinase inhibitor, 25 μM ATP
# Method: as §1, §2, §3, §4, §5, §6, §7
row,SMILES,Inhibition rate [%]
1,Cc1[nH]c(/C=C2\C(=O)Nc3ccc(S(=O)(=O)N(C)c4cccc(Cl)c4)cc32)c(C)c1C(=O)N1CCN(C)CC1 [Inhibitor 9],70.7

# Tested on: tyrosine kinase in cell membrane fraction of BT-20
# Assay: as above
# Type: biochemical
# Details: 25 μM kinase inhibitor, 25 μM ATP
# Method: as §1, §2, §3, §4, §5, §6, §7
row,SMILES,Inhibition rate [%]
1,Cc1[nH]c(/C=C2\C(=O)Nc3ccc(S(=O)(=O)N(C)c4cccc(Cl)c4)cc32)c(C)c1C(=O)N1CCN(C)CC1 [Inhibitor 9],51.4

# Tested on: tyrosine kinase in cell membrane fraction of AU565
# Assay: as above
# Type: biochemical
# Details: 25 μM kinase inhibitor, 25 μM ATP
# Method: as §1, §2, §3, §4, §5, §6, §7
row,SMILES,Inhibition rate [%]
1,Cc1[nH]c(/C=C2\C(=O)Nc3ccc(S(=O)(=O)N(C)c4cccc(Cl)c4)cc32)c(C)c1C(=O)N1CCN(C)CC1 [Inhibitor 9],55.6

# Tested on: tyrosine kinase in cell membrane fraction of BT-474
# Assay: as above
# Type: biochemical
# Details: 25 μM kinase inhibitor, 25 μM ATP
# Method: as §1, §2, §3, §4, §5, §6, §7
row,SMILES,Inhibition rate [%]
1,Cc1[nH]c(/C=C2\C(=O)Nc3ccc(S(=O)(=O)N(C)c4cccc(Cl)c4)cc32)c(C)c1C(=O)N1CCN(C)CC1 [Inhibitor 9],54.6

# Tested on: tyrosine kinase in cell membrane fraction of MDA-MB-157
# Assay: as above
# Type: biochemical
# Details: 25 μM kinase inhibitor, 25 μM ATP
# Method: as §1, §2, §3, §4, §5, §6, §7
row,SMILES,Inhibition rate [%]
1,Cc1[nH]c(/C=C2\C(=O)Nc3ccc(S(=O)(=O)N(C)c4cccc(Cl)c4)cc32)c(C)c1C(=O)N1CCN(C)CC1 [Inhibitor 9],56.8

# Tested on: tyrosine kinase in cell membrane fraction of HCC1937
# Assay: as above
# Type: biochemical
# Details: 25 μM kinase inhibitor, 25 μM ATP
# Method: as §1, §2, §3, §4, §5, §6, §7
row,SMILES,Inhibition rate [%]
1,Cc1[nH]c(/C=C2\C(=O)Nc3ccc(S(=O)(=O)N(C)c4cccc(Cl)c4)cc32)c(C)c1C(=O)N1CCN(C)CC1 [Inhibitor 9],52.6

# Tested on: tyrosine kinase in cell membrane fraction of HCC1806
# Assay: as above
# Type: biochemical
# Details: 25 μM kinase inhibitor, 25 μM ATP
# Method: as §1, §2, §3, §4, §5, §6, §7
row,SMILES,Inhibition rate [%]
1,Cc1[nH]c(/C=C2\C(=O)Nc3ccc(S(=O)(=O)N(C)c4cccc(Cl)c4)cc32)c(C)c1C(=O)N1CCN(C)CC1 [Inhibitor 9],77.3

# Tested on: tyrosine kinase in cell membrane fraction of HCC1428
# Assay: as above
# Type: biochemical
# Details: 25 μM kinase inhibitor, 25 μM ATP
# Method: as §1, §2, §3, §4, §5, §6, §7
row,SMILES,Inhibition rate [%]
1,Cc1[nH]c(/C=C2\C(=O)Nc3ccc(S(=O)(=O)N(C)c4cccc(Cl)c4)cc32)c(C)c1C(=O)N1CCN(C)CC1 [Inhibitor 9],47.5

# Tested on: tyrosine kinase in cell membrane fraction of UACC893
# Assay: as above
# Type: biochemical
# Details: UACC893; 25 μM kinase inhibitor, 25 μM ATP
# Method: as §1, §2, §3, §4, §5, §6, §7
row,SMILES,Inhibition rate [%]
1,Cc1[nH]c(/C=C2\C(=O)Nc3ccc(S(=O)(=O)N(C)c4cccc(Cl)c4)cc32)c(C)c1C(=O)N1CCN(C)CC1 [Inhibitor 9],56.9

# Tested on: tyrosine kinase in cell membrane fraction of MDA-MB-231
# Assay: as above
# Type: biochemical
# Details: 25 μM kinase inhibitor, 25 μM ATP
# Method: as §1, §2, §3, §4, §5, §6, §7
row,SMILES,Inhibition rate [%]
1,Cc1[nH]c(/C=C2\C(=O)Nc3ccc(S(=O)(=O)N(C)c4cccc(Cl)c4)cc32)c(C)c1C(=O)N1CCN(C)CC1 [Inhibitor 9],68.0

# Tested on: tyrosine kinase in cell membrane fraction of T47D
# Assay: as above
# Type: biochemical
# Details: 25 μM kinase inhibitor, 25 μM ATP
# Method: as §1, §2, §3, §4, §5, §6, §7
row,SMILES,Inhibition rate [%]
1,Cc1[nH]c(/C=C2\C(=O)Nc3ccc(S(=O)(=O)N(C)c4cccc(Cl)c4)cc32)c(C)c1C(=O)N1CCN(C)CC1 [Inhibitor 9],42.5

# Tested on: tyrosine kinase in cell membrane fraction of MDA-MB-436
# Assay: as above
# Type: biochemical
# Details: 25 μM kinase inhibitor, 25 μM ATP
# Method: as §1, §2, §3, §4, §5, §6, §7
row,SMILES,Inhibition rate [%]
1,Cc1[nH]c(/C=C2\C(=O)Nc3ccc(S(=O)(=O)N(C)c4cccc(Cl)c4)cc32)c(C)c1C(=O)N1CCN(C)CC1 [Inhibitor 9],74.0

# Tested on: tyrosine kinase in cell membrane fraction of BT-549
# Assay: as above
# Type: biochemical
# Details: 25 μM kinase inhibitor, 25 μM ATP
# Method: as §1, §2, §3, §4, §5, §6, §7
row,SMILES,Inhibition rate [%]
1,Cc1[nH]c(/C=C2\C(=O)Nc3ccc(S(=O)(=O)N(C)c4cccc(Cl)c4)cc32)c(C)c1C(=O)N1CCN(C)CC1 [Inhibitor 9],81.4

# Tested on: tyrosine kinase in cell membrane fraction of HCC1569
# Assay: as above
# Type: biochemical
# Details: 25 μM kinase inhibitor, 25 μM ATP
# Method: as §1, §2, §3, §4, §5, §6, §7
row,SMILES,Inhibition rate [%]
1,Cc1[nH]c(/C=C2\C(=O)Nc3ccc(S(=O)(=O)N(C)c4cccc(Cl)c4)cc32)c(C)c1C(=O)N1CCN(C)CC1 [Inhibitor 9],67.0

# Tested on: tyrosine kinase in cell membrane fraction of MCF7
# Assay: as above
# Type: biochemical
# Details: 25 μM kinase inhibitor, 25 μM ATP
# Method: as §1, §2, §3, §4, §5, §6, §7
row,SMILES,Inhibition rate [%]
1,Cc1[nH]c(/C=C2\C(=O)Nc3ccc(S(=O)(=O)N(C)c4cccc(Cl)c4)cc32)c(C)c1C(=O)N1CCN(C)CC1 [Inhibitor 9],64.3
